Tests used:
[1] = system: primary culture of cortical neurons; experiment: Neuronal survival evaluation via trypan blue (cell membrane integrity) in in vitro model of ischemia/reperfusion (OGD); assay type: cell-based, mouse; details: for overall conclusion: neuroprotective effect against cerebral ischemia: conclusion drawn from all of the results (Examples 2 to 8); for neuronal protection (trypan blue): Example 7, FIG. 7, 4 h of OGD then 24 h of reperfusion
Procedure: (§1) More specifically, the cells taken are grown in a Neurobasal™ medium (ref. 21103049 ThermoFisher Scientific) to which L-glutamine and B27 supplement 50X (ref. 17504044 ThermoFisher Scientific) have been added (step 2). The neurons from the primary culture are then isolated and purified. It should be noted that it is the culture conditions in themselves which make it possible to obtain a purified culture of neurons from the dissociation of the embryonic cortexes. Oxygen and glucose deprivation (OGD) is then carried out (step 3) on these neurons in order to mimic as closely as possible what happens in vivo during a stroke, that is to say a decrease in oxygen and glucose supply due to a decrease in blood perfusion for the cells. In order to carry out this oxygen and glucose deprivation mimicking ischemia, the neurons are placed, for 4 h, in an incubator of which the atmosphere has an oxygen content of approximately 1% and with the culture medium being replaced with a glucose-free medium (step 3). Since the ischemia model is an “ischemia/reperfusion” model, the neurons are then placed in a medium containing glucose under normoxic conditions for 24 h (reperfusion) (step 4) following the ischemia step. Neuron group A is a group of neurons having been treated with a solution of compound of formula (I) during the OGD and the reperfusion, that is to say that a molecule of table 1 is added to glucose-free medium as soon as the oxygen and glucose deprivation begins (step 3). […] The concentration of the other molecules of table 1 is 100 nmol·L^−1 in the glucose-free medium. Neuron group B is a group of neurons having been treated with a solution of DX243 during the reperfusion only (step 4), in order to be closer to what occurs clinically, namely the possible treatment only after several hours with a conventional treatment. The DX243 solution is added to the glucose-free medium as soon as the reperfusion begins (step 4). The DX243 concentration is between 1 nmol. L^−1 and 1 μmol·L^−1 in the glucose-free medium.
(§2) The negative control consists of a group of neurons undergoing OGD (step 3) followed by reperfusion (step 4) without DX243 being present. This group of neurons is called “Ctrl” in FIGS. 2 to 4. The normal control consists of a group of neurons from the primary culture placed under normoxic conditions for 28 h. The normal control is called “normox” in FIGS. 2 to 4. The positive control consists of a group of neurons from the primary culture having undergone OGD for 4 h (step 3) in the presence of roscovitine, which is a cell cycle inhibitor, leading to neuronal protection, followed by reperfusion for 24 h (step 4). The positive control is called “ROSCO” in FIGS. 2 to 4.
(§3) At the end of the reperfusion (step 4), 24 h after the OGD, the survival of the neurons is evaluated by means of three different tests: an immunocytochemical test 5, an MTT (3-(4,5-dimethylthiazol-2-yl)-2,5-diphenyltetrazolium bromide) test 6 and a test based on the cell membrane integrity via the use of trypan blue 7. The results are then compared to the results of the three control-group survival tests.
A third cell survival test in the case of the use of DX243, based on cell membrane integrity, which is ruptured in dead cells, was carried out. The latter test uses trypan blue which will stain the dead cells blue. The calculation of the percentage of live cells was consequently performed by counting the proportion of blue and non-blue cells, and related to the percentage of live cells observed in the normox group. The results obtained were reported in graph A of FIG. 4 for group A and in graph B of FIG. 4 for group B.
For all the molecules of table I other than DX243 used on group A, the third cell survival test was carried out. The results obtained were reported on the graph of FIG. 5, with the results obtained with DX243 being included therein. The sign NT means not treated. […]

[2] = system: primary culture of cortical neurons; experiment: MTT neuronal survival evaluation test in in vitro model of ischemia/reperfusion (OGD); assay type: cell-based, mouse; details: for neuronal protection (MTT): Example 6, FIG. 6, 100 nM, 4 h of OGD then 24 h of reperfusion
Procedure: as §1, §2, §3
In order to confirm the results obtained with DX243, a test based on the metabolic activity of the neurons was carried out to evaluate neuronal survival in another way. This test is based on the use of the tetrazolium salt MTT (3-(4,5-dimethylthiazol-2-yl)-2,5-diphenyltetrazolium bromide). The tetrazolium is reduced, by the mitochondrial succinate dehydrogenase of the active live cells, into formazan, a purple-colored precipitate. The amount of precipitate formed is proportional to the amount of live cells but also to the metabolic activity of each cell. Thus, a simple assay of the optical density at 550 nm by spectroscopy makes it possible to determine the relative amount of live and metabolically active cells. […]

[3] = system: male murine model of stroke, called Middle Cerebral Artery Occlusion (MCAO); experiment: In vivo stroke test, Middle Cerebral Artery Occlusion (MCAO) followed by reperfusion; parameters: species or system mouse; details: DX243 50 mg/Kg at reperfusion after 1 h occlusion
[4] = system: primary culture of cortical neurons; experiment: Immunocytochemical test for neuronal survival (DAPI, CC3, TUJ1) in in vitro model of ischemia/reperfusion (OGD); assay type: cell-based, mouse
Procedure: as §1
The negative control consists of a group of neurons undergoing OGD (step 3) followed by reperfusion (step 4) without DX243 being present. This group of neurons is called “Ctrl” in FIGS. 2 to 4. […]
as §3, with “The results are then compared to the results of the three control-group survival tests.” left out
A first series of images is taken with chemical labelling by fluorescence. […] A second series of images is taken with labelling by fluorescence using the CC3 antibody. […]

[5] = Example 5, FIG. 5, group A, 100 nmol·L^−1 during 4 h OGD and 24 h reperfusion
[6] = concentration not printed in the sentence (100 nmol·L^−1 per Example 1)
[7] = observed at 24 h, vs non-treated (Ctrl) mice
[8] = 4 h OGD + 24 h reperfusion, DX243 treatment compared with the Ctrl group

| Structure (SMILES) | overall conclusion: neuroprotective effect against cerebral ischemia [1] | neuronal protection (MTT) [2] | survival rate compared with DX243 [1, 5] | also measured |
| --- | --- | --- | --- | --- |
| CC(C)CCCC(C)[C@H]1CCC2C3C[C@@H](NCCc4cnc[nH]4)[C@@]4(O)C[C@@H](O)CC[C@]4(C)C3CC[C@@]21C (some centres unmarked) [DX101] | neuroprotective effect against cerebral ischemia | neuroprotective effect |  |  |
| CC(C)CCCC(C)[C@H]1CCC2C3=C[C@@H](NCCCNCCCCN)[C@@]4(O)C[C@@H](O)CC[C@]4(C)C3CC[C@@]21C (some centres unmarked) [DX242] | neuroprotective effect against cerebral ischemia | neuroprotective effect | greater than that of DX243 | neuronal protection (trypan blue) [1, 6]: neuroprotective effect |
| CC(C)CCCC(C)[C@H]1CCC2C3C[C@@H](NCCCN(CCCCNC(=O)OC(C)(C)C)C(=O)OC(C)(C)C)[C@@]4(O)C[C@@H](O)CC[C@]4(C)C3CC[C@@]21C (some centres unmarked) [DX243BOC] |  |  | lower than that of the group treated with DX243 | survival rate compared with NT neurons having undergone OGD and reperfusion [1, 5]: lower than that of the group treated with DX243 and than that of the NT group having undergone OGD and reperfusion |
| CC(C)CCCC(C)[C@H]1CCC2C3C[C@@H](NCCCNCCCCN)[C@@]4(O)C[C@@H](O)CC[C@]4(C)C3CC[C@@]21C (some centres unmarked) [DX243] | neuroprotective effect against cerebral ischemia | significant neuronal protection |  | behavioral deficits (neuroscore) ([3]; observed at 24 h, living mice, vs non-treated (Ctrl) mice): decrease in the behavioral deficits; percentage of dead mice [3, 7]: decrease in the percentage of dead mice; size of the lesion (infarcted region, TTC staining) [3, 7]: decrease in the size of the lesion; correlation between the decrease in blood flow (Laser Doppler Flowmetry) and the consequences of the stroke ([3]; treated mice): there does not appear to be any correlation; percentage of live cells (membrane integrity) related to normox group ([1]; 4 h OGD + 24 h reperfusion, groups A and B, mainly 1 to 100 nmol·L^−1): restores the percentage of live cells to levels close to that observed in the normox group; neuronal protection (trypan blue) ([1]; 1000 nM): neuroprotective effect; neuronal protection (trypan blue) ([1]; concentrations ranging from 1 to 100 nM): significant neuronal protection; protection against decrease of metabolically active cells (survival) following OGD ([2]; 4 h OGD + 24 h reperfusion, groups A and B, vs Ctrl group): partially protects against this decrease in survival; effect in group treated only during reperfusion compared with group A ([2]; group B, DX243 only during the reperfusion for 24 h): all the more marked; protection against neuronal death ([4]; 4 h OGD + 24 h reperfusion, DX243 during OGD and reperfusion, or only during reperfusion, vs Ctrl group): partially protect against neuronal death; proportion of cells undergoing apoptosis (CC3 antibody, activated caspase 3) [4, 8]: decrease in the proportion of cells undergoing apoptosis; proportion of live cells [4, 8]: increase in the proportion of live cells; neuron protection, post-OGD treatment for 24 h (reperfusion only) compared with treatment during OGD and reperfusion ([4]; group B, DX243 only during 24 h reperfusion): protects the neurons even more efficiently |
| CC(C)CCCC(C)[C@H]1CCC2C3=C[C@@H](NCCCCNCCCN)[C@@]4(O)C[C@@H](O)CC[C@]4(C)C3CC[C@@]21C (some centres unmarked) [DX244] | neuroprotective effect against cerebral ischemia | neuroprotective effect | greater than that of DX243 | neuronal protection (trypan blue) [1, 6]: neuroprotective effect |
| CC(C)CCCC(C)[C@H]1CCC2C3C[C@@H](NCCCCNCCCN)[C@@]4(O)C[C@@H](O)CC[C@]4(C)C3CC[C@@]21C (some centres unmarked) [DX245] | neuroprotective effect against cerebral ischemia | significant neuronal protection | greater than that of DX243 | neuronal protection (trypan blue) ([1]; 10 nM): neuroprotective effect; neuronal protection (trypan blue) ([1]; 100 nM): significant neuronal protection; neuronal protection (trypan blue) ([1]; 1000 nM): neuroprotective effect |
| CC(=O)NCCCNCCCCN[C@@H]1CC2C3CC[C@H](C(C)CCCC(C)C)[C@@]3(C)CCC2[C@@]2(C)CC[C@H](O)C[C@]12O (some centres unmarked) [DX249] | neuroprotective effect against cerebral ischemia | neuroprotective effect |  |  |
| CC(C)CCCC(C)[C@H]1CCC2C3C[C@@H](NCCCNCCCCNCCCN)[C@@]4(O)C[C@@H](O)CC[C@]4(C)C3CC[C@@]21C (some centres unmarked) [DX301] | neuroprotective effect against cerebral ischemia | neuroprotective effect |  |  |
| CC(C)CCCC(C)[C@H]1CCC2C3=C[C@@H](NCCCNCCCCNCCCN)[C@@]4(O)C[C@@H](O)CC[C@]4(C)C3CC[C@@]21C (some centres unmarked) [DX302] | neuroprotective effect against cerebral ischemia | neuroprotective effect |  |  |
| CC(C)CCCC(C)[C@H]1CCC2C3C[C@@H](NCCCCN)[C@@]4(O)C[C@@H](O)CC[C@]4(C)C3CC[C@@]21C (some centres unmarked) [DX401] | neuroprotective effect against cerebral ischemia | neuroprotective effect |  |  |

From patent publication US20260272950A1, “METHOD OF TREATMENT OF A NEURONAL PATHOLOGY RELATED TO HYPOXIA, HYPOGLYCEMIA AND/OR HYPERGLYCEMIA” (priority 2019, published 2026)
